For one experiment, the system named is rats (大鼠). Particulars: repeated injection; Trujillo et al.; cited from earlier work.
In experiment [1] the test system is SOD. In words: Serum SOD determination. In kind it is in vivo, Kunming mouse. As to conditions: 25, 50, 100 mg/kg, i.p., once daily for 7 days; with increasing dose.
Experiment [2] has as its system mice (小鼠). Kind of experiment: Suspension test (悬吊实验), limb weakness. The format is in vivo, Kunming mouse. As to conditions: i.p., single administration (day 1).
The subject of experiment [3] is mice (小鼠). Kind of experiment: Stereotyped behaviour (刻板行为). As to conditions: medium and large dose (50, 100 mg/kg), i.p., P<0.01. In kind it is in vivo, Kunming mouse.
In experiment [4] the test system is mice (小鼠). Kind of experiment: Open field test (旷场实验), hyperlocomotion. In kind it is in vivo, Kunming mouse. Particulars: medium and large dose (50, 100 mg/kg), i.p., single administration (day 1); P<0.01.
A further experiment deals with NOX4 protein (NOX4蛋白). In words: NOX4 protein expression (immunohistochemistry). The format is in vivo, Kunming mouse. As to conditions: i.p.
Experiment [5] concerns mice (小鼠). In words: Schizophrenia-like symptoms overall (behavioural tests together). In kind it is in vivo, Kunming mouse. As to conditions: i.p.
For experiment [6], the system named is depressed patients (抑郁患者). As to conditions: 0.5 mg/kg; Liebrenz et al.; cited from earlier work.
In experiment [7] the test system is mice (小鼠). In words: Y-maze test (Y型迷宫实验), learning and memory. In kind it is in vivo, Kunming mouse. As to conditions: medium and large dose (50, 100 mg/kg), i.p., once daily for 7 days; P<0.01.
Experiment [8] concerns mice (小鼠). In words: Pole climbing test (爬杆实验), ataxia. As to conditions: medium and large dose (50, 100 mg/kg), i.p., once daily for 7 days; P<0.01. The format is in vivo, Kunming mouse.
The test system of experiment [9] is SOD. Kind of experiment: Brain tissue SOD determination. In kind it is in vivo, Kunming mouse. As to conditions: 25, 50, 100 mg/kg, i.p., once daily for 7 days; with increasing dose.
Where [10] appears, read: 25, 50, 100 mg/kg, single or repeated administration.

On to `CNC1(c2ccccc2Cl)CCCCC1=O` (stereo not drawn) [氯胺酮], for which, in the experiment with rats (大鼠), the activity of rats result was “活动增多”. For the same compound, the “serum SOD activity, dose trend” value in the experiment on SOD [1] is “逐渐降低”. The limb weakness entry with mice (小鼠) [2] (medium and large dose (50, 100 mg/kg), P<0.01) is given as “四肢无力”; in the experiment on mice (小鼠) [2] (small dose 25 mg/kg, P<0.05), “产生四肢无力”. The stereotyped behaviour entry in the experiment with mice (小鼠) [3] (once daily for 7 days) was “刻板行为增加”; in the experiment with mice (小鼠) [3] (single administration (day 1)), “刻板行为”. Moreover, in the experiment on mice (小鼠) [4], the hyperlocomotion result is “明显的运动亢进”. Further, the “NOX4 protein expression, dose dependence” value in the experiment with NOX4 protein (NOX4蛋白) (25, 50, 100 mg/kg) was “有一定的剂量依赖趋势”. Further, the “NOX4 protein expression, pairwise comparison among dose groups” value in the experiment on NOX4 protein (NOX4蛋白) (25, 50, 100 mg/kg, P<0.01) was “具有显著性差异”. For the same compound, in the experiment on NOX4 protein (NOX4蛋白) (different doses of ketamine (25, 50, 100 mg/kg), P<0.01), the NOX4 protein expression entry is listed as “显著增加”. The schizophrenia-like symptoms result is given as “均可诱导小鼠产生类似精神分裂症的症状” in the experiment on mice (小鼠) [5] (setting [10]) and “更为明显” in the experiment on mice (小鼠) [5] (large dose 100 mg/kg). Besides, the “schizophrenia-like symptoms, dose dependence” value in the experiment on mice (小鼠) [5] (setting [10]) is “具有一定的剂量依赖趋势”. In the experiment with mice (小鼠) [5] (after 7 days of repeated administration), the “stability of part of the symptoms” value is “部分症状具有更好的稳定性”. The “symptoms of depressed patients” value in experiment [6] is given as “显著改善”. Also, in the experiment on mice (小鼠) [7], the “learning and memory ability” value was “学习记忆能力下降”. Also, in the experiment on mice (小鼠) [8], the ataxia result was “共济失调现象”. Further, in the experiment with SOD [9], the “brain tissue SOD activity, dose trend” value is on record as “逐渐降低”.

Source of the values: patent publication CN107801692A, “一种氯胺酮诱导精神分裂症动物模型及其机制研究” (Kunming Medical University, priority 2017, dated 2018).
